Test results taken from the supplement of paper PMC12592484.

How the values were obtained:
Assay in all cases: drug sensitivity score (DSS2, normalised partial AUC of dose-response, 72 h CellTiter-Glo viability) (DSS (dimensionless)); higher = more sensitive (stronger growth inhibition / cytotoxicity); extreme values may be limits of the assay
[1] = test system: PF179T
In short: (§1)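 Low-passage primary prostate cancer-associated fibroblasts, PF179T, WPMY-1, LNCaP and 22Rv1 cells were seeded into 384-well plates carrying pre-dispensed compounds at five doses covering a 10,000-fold range. After 72 h, viability was read by CellTiter-Glo 2.0 luminescence. Responses were scaled to vehicle and positive-control wells. The drug sensitivity score (DSS2) is a partial area under the fitted logistic dose–response curve divided by the log of its upper asymptote, computed in BREEZE; higher means more sensitive.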

[2] = test system: CAF#2 (primary prostate cancer-associated fibroblasts of iCAF-like type)
In short: as §1

[3] = test system: WPMY-1
In short: as §1

[4] = test system: 22Rv1
In short: as §1

[5] = test system: CAF#7 (primary prostate cancer-associated fibroblasts of myCAF-like type)
In short: as §1

[6] = test system: CAF#3 (primary prostate cancer-associated fibroblasts of myCAF-like type)
In short: as §1

[7] = test system: CAF#5 (primary prostate cancer-associated fibroblasts of myCAF-like type)
In short: as §1

[8] = test system: CAF#6 (primary prostate cancer-associated fibroblasts of iCAF-like type)
In short: as §1

[9] = test system: LNCAP
In short: as §1

[10] = test system: CAF#1 (primary prostate cancer-associated fibroblasts of myCAF-like type)
In short: as §1

[11] = test system: CAF#4 (primary prostate cancer-associated fibroblasts of iCAF-like type)
In short: as §1

Row | Compound | drug sensitivity score [1] | drug sensitivity score [2] | drug sensitivity score [3] | drug sensitivity score [4] | drug sensitivity score [5] | drug sensitivity score [6] | drug sensitivity score [7] | drug sensitivity score [8] | drug sensitivity score [9] | drug sensitivity score [10] | drug sensitivity score [11]
1 | CC1(C)CNc2cc(NC(=O)c3cccnc3NCc3ccncc3)ccc21 [Motesanib] (tested concentration range 1-10000 nM) | 0 | 2.7 | 0 | 0 | 3.7 | 5.9 | 2.4 | 2.1 | 5.1 | 1.4 | 0.7
2 | CCCN(CCC)C(=O)C1=Cc2ccc(-c3ccc(C(=O)N4CCCC4)cc3)cc2N=C(N)C1 [Motolimod] (tested concentration range 1-10000 nM) | 0 | 1 | 0.3 | 1.1 | 0 | 1.7 | 0 | 1.5 | 3.2 | 0.4 | 0
3 | FC(F)(F)c1ccc(/C=C/c2nc(COc3ccc(CCCCn4ccnn4)cc3)co2)cc1 [Mubritinib] (tested concentration range 0.1-1000 nM) | 9.7 | 0 | 12 | 5.8 | 0 | 0 | 0 | 0 | 11.7 | 0 | 0
4 | Cc1cc(OCc2nnc(SC3CCCC3)n2-c2cccnc2)ccc1-c1ccc(S(C)(=O)=O)cc1 [NMS-873] (tested concentration range 1-10000 nM) | 15 | 8.5 | 14.6 | 12.4 | 5.1 | 8 | 5.6 | 5.9 | 18.4 | 4.8 | 5.7
5 | Cc1ccc(C(=O)Nc2cccc(C(F)(F)F)c2)cc1Nc1nc(-c2cccnc2)nc2c1cnn2C [NVP-BHG712] (tested concentration range 1-10000 nM) | 0.6 | 3.2 | 9 | 5 | 0 | 0 | 1 | 0 | 9.6 | 0 | 1.6
6 | CN[C@@H](C)C(=O)N[C@H](C(=O)N1CCC[C@H]1c1nc(C(=O)c2ccc(F)cc2)cs1)C1CCCCC1 [NVP-LCL161] (tested concentration range 2.5-25000 nM) | 0 | 0.4 | 3 | 3.4 | 2 | 1.2 | 0 | 1.9 | 3.7 | 0 | 0.3
7 | CC(=O)c1cc2c(o1)C(=O)c1ccccc1C2=O [Napabucasin] (tested concentration range 2-20000 nM) | 21 | 22.6 | 19.8 | 17.7 | 9.5 | 16.4 | 11.7 | 16.8 | 19.5 | 11.2 | 22.4
8 | CC1(C)CCC(c2ccc(Cl)cc2)=C(CN2CCN(c3ccc(C(=O)NS(=O)(=O)c4ccc(N[C@H](CCN5CCOCC5)CSc5ccccc5)c(S(=O)(=O)C(F)(F)F)c4)cc3)CC2)C1 [Navitoclax] (tested concentration range 1-10000 nM) | 0 | 0 | 0.6 | 0 | 0.7 | 0 | 2.3 | 3.1 | 7.5 | 3 | 7.5
9 | CN1C(=O)N[C@H](Cc2c[nH]c3c(Cl)cccc23)C1=O [Necrostatin 2] (tested concentration range 1-10000 nM) | 0 | 0 | 0 | 0 | 0 | 0 | 0 | 0 | 0 | 0 | 0
10 | O=c1ncn2nc(Sc3ccc(F)cc3F)ccc2c1-c1c(Cl)cccc1Cl [Neflamapimod] (tested concentration range 1-10000 nM) | 0 | 0 | 0 | 0.8 | 0 | 0 | 0 | 0 | 1.2 | 0 | 0
11 | COc1nc(N)nc2c1ncn2[C@@H]1O[C@H](CO)[C@@H](O)[C@@H]1O [Nelarabine] (tested concentration range 1-10000 nM) | 0 | 0 | 0 | 0 | 0 | 0 | 0 | 0 | 0 | 0 | 0
12 | CCOc1cc2ncc(C#N)c(Nc3ccc(OCc4ccccn4)c(Cl)c3)c2cc1NC(=O)/C=C/CN(C)C [Neratinib] (tested concentration range 0.1-1000 nM) | 2.4 | 2.1 | 2 | 2.4 | 4.2 | 4.6 | 0 | 3.1 | 3.6 | 1.6 | 2.5
13 | Cc1cn(-c2cc(NC(=O)c3ccc(C)c(Nc4nccc(-c5cccnc5)n4)c3)cc(C(F)(F)F)c2)cn1 [Nilotinib] (tested concentration range 1-10000 nM) | 0 | 0.8 | 0 | 2.1 | 0 | 0 | 0.2 | 0 | 5.3 | 0.8 | 1.7
14 | CC1(C)NC(=O)N(c2ccc([N+](=O)[O-])c(C(F)(F)F)c2)C1=O [Nilutamide] (tested concentration range 1-10000 nM) | 0 | 0.1 | 0 | 0 | 0 | 0 | 0 | 0 | 2.9 | 0.1 | 2.7
15 | COC(=O)c1ccc2c(c1)NC(=O)/C2=C(\Nc1ccc(N(C)C(=O)CN2CCN(C)CC2)cc1)c1ccccc1 [Nintedanib] (tested concentration range 1-10000 nM) | 0 | 8.6 | 5.7 | 8.4 | 10.5 | 9.3 | 5.5 | 7.7 | 9.2 | 5.4 | 7
16 | NC(=O)c1cccc2cn(-c3ccc([C@@H]4CCCNC4)cc3)nc12 [Niraparib] (tested concentration range 1-10000 nM) | 5.8 | 3.9 | 4.4 | 7.5 | 3.7 | 3.2 | 1.7 | 1.1 | 5.5 | 1.5 | 2.5
17 | Cc1ccccc1CN1C(=O)C2=C(CCN(Cc3ccccc3)C2)N2CCN=C12 [ONC201] (tested concentration range 2.5-25000 nM) | 3.1 | 6.2 | 6.9 | 13.9 | 3.8 | 2.3 | 3.1 | 4.1 | 9.3 | 3.6 | 3.4
18 | O=C(c1cc(Cc2n[nH]c(=O)c3ccccc23)ccc1F)N1CCN(C(=O)C2CC2)CC1 [Olaparib] (tested concentration range 1-10000 nM) | 6.4 | 4.7 | 4.5 | 5.8 | 4.1 | 3 | 4.5 | 3.5 | 4.4 | 3.8 | 6.8
19 | COC(=O)C[C@](O)(CCCC(C)(C)O)C(=O)O[C@@H]1C(OC)=C[C@]23CCCN2CCc2cc4c(cc2[C@H]13)OCO4 [Omacetaxine] (tested concentration range 1-10000 nM) | 22 | 21.9 | 25.2 | 35 | 21.4 | 20.6 | 18.7 | 20 | 29.2 | 19.1 | 15.3
20 | CC1(C)CC[C@]2(NC(=O)C(C)(F)F)CC[C@]3(C)[C@H](C(=O)C=C4[C@@]5(C)C=C(C#N)C(=O)C(C)(C)[C@@H]5CC[C@]43C)[C@@H]2C1 [Omaveloxolone] (tested concentration range 1-10000 nM) | 14.8 | 23.2 | 18.4 | 14.4 | 4.8 | 4.6 | 18.5 | 5.3 | 23.9 | 19.8 | 17
21 | CC(C)c1cc(C(=O)N2Cc3ccc(CN4CCN(C)CC4)cc3C2)c(O)cc1O [Onalespib] (tested concentration range 0.2-2500 nM) | 11.6 | 12.1 | 21.1 | 18 | 11.2 | 11.8 | 8.6 | 10.5 | 18.2 | 10 | 7.8
22 | O=C(NCc1ccncc1)C12CC3CC(C1)CC(c1ccc(Cl)cc1)(C3)C2 [Opaganib] (tested concentration range 5-50000 nM) | 3.8 | 4.4 | 6.8 | 5.9 | 0.4 | 1.2 | 0.7 | 0.7 | 8.6 | 2.7 | 4.1
23 | COC[C@H](NC(=O)c1cnc(C)s1)C(=O)N[C@@H](COC)C(=O)N[C@@H](Cc1ccccc1)C(=O)[C@@]1(C)CO1 [Oprozomib] (tested concentration range 0.2-2500 nM) | 14.6 | 16 | 25.7 | 20.7 | 9.7 | 10.3 | 13.1 | 10.5 | 20.8 | 14 | 11.4
24 | C=CC(=O)Nc1cc(Nc2nccc(-c3cn(C)c4ccccc34)n2)c(OC)cc1N(C)CCN(C)C [Osimertinib] (tested concentration range 0.2-2500 nM) | 1.9 | 5 | 4.6 | 5.9 | 4.2 | 5.4 | 4.8 | 3 | 6.4 | 3.4 | 3.7
25 | O=C(O)C(=O)O.[NH-][C@@H]1CCCC[C@H]1[NH-].[Pt+2] [Oxaliplatin] (tested concentration range 10-100000 nM) | 8.8 | 10.6 | 9 | 13.8 | 7.4 | 8.3 | 9.4 | 7.3 | 26.1 | 9.7 | 9.1
